The supplement of paper PMC10307832

Legend:
Assay in all cases: relative viability (nuclei count vs DMSO), 5 days (fraction); higher = more cells survive
Avagacestat + Trametinib = compound: NC(=O)[C@@H](CCC(F)(F)F)N(Cc1ccc(-c2ncon2)cc1F)S(=O)(=O)c1ccc(Cl)cc1 [Avagacestat] + CC(=O)Nc1cccc(-n2c(=O)n(C3CC3)c(=O)c3c(Nc4ccc(I)cc4F)n(C)c(=O)c(C)c32)c1 [Trametinib] (partner 0.02 µM)
Procedure, shortened: (§1)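 Medians of duplicate plates are given as relative viability. That measure is the nuclei count in treated wells divided by the count in vehicle wells. Counts were taken on 4× images of lung cancer cell lines in 1536-well plates, 5 days after pin-tool dosing the day after seeding with one drug alone or a fixed anchor-drug dose plus five library-drug doses (not always all listed) in √10 steps.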

Avagacestat + Navitoclax = compound: NC(=O)[C@@H](CCC(F)(F)F)N(Cc1ccc(-c2ncon2)cc1F)S(=O)(=O)c1ccc(Cl)cc1 [Avagacestat] + CC1(C)CCC(c2ccc(Cl)cc2)=C(CN2CCN(c3ccc(C(=O)NS(=O)(=O)c4ccc(N[C@H](CCN5CCOCC5)CSc5ccccc5)c(S(=O)(=O)C(F)(F)F)c4)cc3)CC2)C1 [Navitoclax] (partner 0.5 µM)
Procedure, shortened: as §1

Avagacestat + Phenformin = compound: NC(=O)[C@@H](CCC(F)(F)F)N(Cc1ccc(-c2ncon2)cc1F)S(=O)(=O)c1ccc(Cl)cc1 [Avagacestat] + N=C(N)NC(=N)NCCc1ccccc1 [Phenformin] (partner 250 µM)
Procedure, shortened: as §1

Avagacestat + Pemetrexed = compound: NC(=O)[C@@H](CCC(F)(F)F)N(Cc1ccc(-c2ncon2)cc1F)S(=O)(=O)c1ccc(Cl)cc1 [Avagacestat] + Nc1nc2[nH]cc(CCc3ccc(C(=O)N[C@@H](CCC(=O)O)C(=O)O)cc3)c2c(=O)[nH]1 [Pemetrexed] (partner 0.2 µM)
Procedure, shortened: as §1

Row | Cell Line | relative viability (Avagacestat + Trametinib; first compound 0.08 µM) | relative viability (Avagacestat + Trametinib; first compound 0.253 µM) | relative viability (Avagacestat + Trametinib; first compound 0.8 µM) | relative viability (Avagacestat + Trametinib; first compound 2.53 µM) | relative viability (Avagacestat + Trametinib; first compound 8 µM) | relative viability (Avagacestat + Navitoclax; first compound 0.08 µM) | relative viability (Avagacestat + Navitoclax; first compound 0.253 µM) | relative viability (Avagacestat + Navitoclax; first compound 0.8 µM) | relative viability (Avagacestat + Navitoclax; first compound 2.53 µM) | relative viability (Avagacestat + Navitoclax; first compound 8 µM) | relative viability (Avagacestat + Phenformin; first compound 0.08 µM) | relative viability (Avagacestat + Phenformin; first compound 0.253 µM) | relative viability (Avagacestat + Phenformin; first compound 0.8 µM) | relative viability (Avagacestat + Phenformin; first compound 8 µM) | relative viability (Avagacestat + Pemetrexed; first compound 0.08 µM) | relative viability (Avagacestat + Pemetrexed; first compound 0.253 µM) | relative viability (Avagacestat + Pemetrexed; first compound 0.8 µM) | relative viability (Avagacestat + Pemetrexed; first compound 2.53 µM) | relative viability (Avagacestat + Pemetrexed; first compound 8 µM) | relative viability (Avagacestat + Phenformin; first compound 2.53 µM)
1 | PC-14 | 1.14 | 1.1 | 0.933 | 0.736 | 0.649 | 1.19 | 1.19 | 1.12 | 0.97 | 0.899 | 0.768 | 0.728 | 0.86 | 0.628 | 0.137 | 0.142 | 0.134 | 0.124 | 0.136 | –
2 | NCI-H2087 | 0.211 | 0.223 | 0.196 | 0.183 | 0.198 | 1.34 | 1.19 | 1.02 | 1.16 | 0.931 | 0.535 | 0.561 | 0.548 | 0.441 | 0.658 | 0.651 | 0.741 | 0.632 | 0.662 | 0.467
3 | NCI-H1395 | 1.02 | 1.05 | 0.926 | 0.803 | 0.949 | 1.12 | 1.23 | 1.03 | 0.903 | 1.11 | 0.424 | 0.456 | 0.432 | 0.457 | 0.866 | 0.954 | 1.08 | 0.798 | 0.696 | 0.45
4 | NCI-H596 | 0.741 | 0.783 | 0.794 | 0.817 | 0.7 | 1.21 | 1.02 | 0.928 | 0.792 | 0.865 | 0.78 | 0.717 | 0.867 | 0.653 | 0.594 | 0.56 | 0.578 | 0.528 | 0.503 | 0.699
5 | LC-2-ad | 0.99 | 0.965 | 0.962 | 0.911 | 0.856 | 0.652 | 0.528 | 0.534 | 0.423 | 0.428 | 0.577 | 0.651 | 0.713 | 0.554 | 0.286 | 0.276 | 0.264 | 0.263 | 0.273 | 0.602
6 | EKVX | 0.468 | 0.39 | 0.348 | 0.303 | 0.298 | 1.12 | 1.15 | 1.04 | 0.792 | 0.853 | 0.234 | 0.259 | 0.278 | 0.229 | 0.5 | 0.462 | 0.529 | 0.439 | 0.373 | 0.256
7 | ChaGo-K-1 | 0.95 | 0.933 | 0.897 | 0.817 | 0.797 | 0.987 | 0.926 | 1.32 | 1.24 | 1.17 | 0.599 | 0.53 | 0.511 | 0.514 | 0.275 | 0.271 | 0.265 | 0.266 | 0.267 | 0.49
8 | NCI-H1792 | 0.534 | 0.641 | 0.491 | 0.373 | 0.439 | 1.25 | 0.584 | 1.13 | 0.538 | 0.417 | 0.474 | 0.304 | 0.391 | 0.304 | 1.54 | 1.08 | 1.28 | 0.818 | 0.451 | 0.19
9 | NCI-H23 | 0.43 | 0.261 | 0.392 | 0.414 | 0.4 | 0.876 | 0.993 | 0.99 | 0.877 | 0.943 | 0.941 | 0.86 | 0.761 | 0.851 | 0.966 | 0.863 | 0.905 | 0.801 | 0.31 | 0.859
10 | NCI-H2126 | 0.612 | 0.553 | 0.545 | 0.524 | 0.512 | 1.02 | 0.899 | 0.875 | 0.798 | 0.832 | 0.509 | 0.516 | 0.569 | 0.511 | 0.67 | 0.687 | 0.698 | 0.605 | 0.683 | 0.561
11 | LXF-289 | 0.725 | 0.656 | 0.767 | 0.659 | 0.636 | 0.964 | 0.996 | 1 | 1 | 0.885 | 0.516 | 0.505 | 0.495 | 0.476 | 0.986 | 0.947 | 0.936 | 0.905 | 0.799 | 0.495
12 | NCI-H1437 | 0.518 | 0.668 | 0.575 | 0.398 | 0.436 | 1.39 | 1.22 | 1.1 | 1.04 | 0.979 | 0.382 | 0.378 | 0.342 | 0.287 | 0.336 | 0.346 | 0.329 | 0.301 | 0.298 | 0.266
13 | NCI-H647 | 0.475 | 0.502 | 0.463 | 0.396 | 0.384 | 1.27 | 1.5 | 1.31 | 1.02 | 0.952 | 0.534 | 0.587 | 0.692 | 0.414 | 0.171 | 0.171 | 0.186 | 0.149 | 0.15 | 0.487
14 | NCI-H838 | 0.534 | 0.607 | 0.559 | 0.442 | 0.495 | 1.55 | 1.52 | 1.31 | 1.06 | 1.13 | 0.622 | 0.537 | 0.598 | 0.484 | 0.263 | 0.271 | 0.28 | 0.238 | 0.243 | 0.509
15 | 201T | 0.732 | 0.749 | 0.761 | 0.691 | 0.625 | 1.19 | 1.21 | 1.25 | 1.19 | 1.18 | 0.55 | 0.514 | 0.471 | 0.424 | 0.314 | 0.352 | 0.351 | 0.301 | 0.335 | 0.424
16 | PC-3 [JPC-3] | 0.763 | 0.754 | 0.816 | 0.742 | 0.714 | 0.908 | 0.885 | 0.864 | 0.821 | 0.761 | 0.461 | 0.443 | 0.487 | 0.521 | 1.24 | 1.36 | 1.62 | 1.25 | 1.04 | 0.472
